{"source": "paper PMC9127371", "about": "“Assembly of nuclear dimers of PI3K regulatory subunits is regulated by the Cdc42-activated tyrosine kinase ACK” (The Journal of Biological Chemistry, 2022)", "type_in_all_cases": "cell-based", "key": {"[1]": {"system": "HEK293T cells expressing WT p85β", "assay": "Proliferation of HEK293T cells stably expressing WT p85β", "details": "AIM-100 8 μM; DMEM + 10% FBS; 1 μg/ml doxycycline; live cell counts, fold change over 24 h; three independent experiments", "experimental": "(§1) Figure 4 Proliferation of HEK293T cells expressing ACK and p85β variants.A, proliferation of HEK293T cells stably expressing wtACK and caACK in 1% FBS. HEK293T cells stably expressing empty vector (control) or HA-tagged wtACK or caACK were seeded at a density of 3 × 10^4 cells per well. Cells were plated in replicates of three, and live cell counts were obtained at the times indicated. Data are plotted as fold change over t = 0 (seeding density). Data from three independent experiments are shown. Error bars represent SD. […] GAPDH is included as a loading control. Data are represented on the right in a bar chart with group significance testing performed by a two-way ANOVA; ∗p <0.05; ∗∗p < 0.01. B, proliferation of HEK293T cells stably expressing empty vector (control), WT p85β, or Y599F p85β. HEK293T cells stably expressing inducible FLAG-tagged WT p85β or p85β Y599F were seeded at a density of 3 × 10^4 cells per well and incubated at 37 °C for 16 h. All cells were then treated with 1 μg/ml doxycycline and incubated at 37 °C for the times indicated before live cell counts were taken. Data are plotted as fold change over the cell count at 24 h post doxycycline treatment. […]\n(§2) Matched cell lines were chosen that had similar expression levels of the transgene. […] Cells were trypsinized and dispersed using a syringe before being counted using a Countess automated cell counter at specific timepoints. […]"}, "[2]": {"system": "HEK293T cells expressing Y599F p85β", "assay": "Proliferation of HEK293T cells stably expressing Y599F p85β", "details": "AIM-100 8 μM; DMEM + 10% FBS; 1 μg/ml doxycycline; live cell counts, fold change over 24 h; three independent experiments", "experimental": "as §1, §2"}, "[3]": {"system": "pTyr284 ACK", "assay": "Active ACK level (pTyr284 ACK Western blot) in HEK293T cells", "details": "AIM-100 8 μM; HEK293T cells expressing ACK and WT p85α; Western blot of whole cell lysate", "experimental": "Figure 7 Subcellular localization of the ACK–p85α complex. ACK and WT p85α were expressed alone and together in HEK293T cells. Where indicated, cells were treated with 8 μM AIM-100. Fractionation was judged using anti-HSP56 to indicate cytoplasmic extracts and anti-fibrillarin to indicate nuclear-enriched fractions. Nuclear and cytoplasmic-enriched fractions were normalized using the Bradford assay, and FLAG-p85α was immunoprecipitated from fractions containing equal total protein using an anti-FLAG antibody. Top panel: Immunoprecipitation of FLAG-p85α and co-immunoprecipitation of HA-ACK was assessed by Western blotting using anti-FLAG and anti-HA antibodies. Bottom panel: Expression of FLAG-p85α and HA-ACK along with active ACK levels was confirmed by Western blotting of whole cell lysate (WCL) samples collected prior to cell fractionation. ACK, activated Cdc42-associated kinase. […]"}, "[4]": {"system": "ACK–p85α complex", "assay": "Co-immunoprecipitation of ACK with p85α from nuclear-enriched fractions of HEK293T cells", "details": "AIM-100 8 μM, anti-FLAG immunoprecipitation", "experimental": "Figure 7 Subcellular localization of the ACK–p85α complex. ACK and WT p85α were expressed alone and together in HEK293T cells. Where indicated, cells were treated with 8 μM AIM-100. Fractionation was judged using anti-HSP56 to indicate cytoplasmic extracts and anti-fibrillarin to indicate nuclear-enriched fractions. Nuclear and cytoplasmic-enriched fractions were normalized using the Bradford assay, and FLAG-p85α was immunoprecipitated from fractions containing equal total protein using an anti-FLAG antibody. Top panel: Immunoprecipitation of FLAG-p85α and co-immunoprecipitation of HA-ACK was assessed by Western blotting using anti-FLAG and anti-HA antibodies. Bottom panel: Expression of FLAG-p85α and HA-ACK along with active ACK levels was confirmed by Western blotting of whole cell lysate (WCL) samples collected prior to cell fractionation. ACK, activated Cdc42-associated kinase.\nSmall-scale co-immunoprecipitations were performed using 1 μg antibody cross-linked to Protein G Dynabeads (Life Technologies) with dimethyl pimelimidate. HEK293T cells were grown in 10 cm dishes to 70% confluence and then transfected for 40 h. […]\nCells were grown in 10 cm dishes to 70% confluence and then transfected for 40 h. […] Cytoplasmic and nuclear-enriched fractions were then either analyzed by SDS-PAGE gel directly or used in co-immunoprecipitation studies."}, "[5]": {"system": "p50α–p85β complex", "assay": "Co-immunoprecipitation of V5-p85β with FLAG-p50α from HEK293T cells", "details": "serum starved (0.05% serum, 16 h), insulin 100 μg/ml for 90 min; anti-FLAG immunoprecipitation; Fig. 6A", "experimental": "(§3) Figure 6 Dimerization of the regulatory subunits. HEK293T cells were transfected with control (GFP), FLAG-p50α (A) or FLAG-p85α (B) alone or with V5-p85β. Expression of the proteins in whole cell lysates (WCLs) is shown in the bottom panels. As indicated, cells were cultured in high serum (10% serum) or serum starved (0.05% serum) for 16 h and prior to lysis were either left untreated or stimulated with either EGF (100 ng/ml for 5 min) or insulin (100 μg/ml for 90 min). Cells were harvested 40 h after transfection and subject to immunoprecipitation using anti-FLAG antibodies. Co-precipitation of V5-p85β was assessed by Western blotting of immunoprecipitated samples using anti-V5 antibodies (top panels). C, WT p85β, WT p50α, and Y307D p50α (equivalent to Tyr607 in p85α) were expressed alone or co-expressed in HEK293T cells cultured in low serum. Samples of WCLs were analyzed by Western blotting using the antibodies indicated and are shown in lower panels. GAPDH is included as a loading control. FLAG-tagged p50α variants were immunoprecipitated from cell lysates using an anti-FLAG antibody, and the co-immunoprecipitation of p85β was assessed using an anti-V5 antibody (top panels). Results are representative of at least three independent experiments. […]"}, "[6]": {"system": "p85α–p85β complex", "assay": "Co-immunoprecipitation of V5-p85β with FLAG-p85α from HEK293T cells", "details": "serum starved (0.05% serum, 16 h), then EGF 100 ng/ml for 5 min or insulin 100 μg/ml for 90 min; anti-FLAG immunoprecipitation; Fig. 6B", "experimental": "as §3"}}, "data": [{"compound": "c1ccc(-c2oc3ncnc(NC[C@@H]4CCCO4)c3c2-c2ccccc2)cc1", "note": "[AIM-100]", "values": [{"measurement": "effect on proliferation of cells expressing WT p85β", "setting": "[1]", "value": "grew at a reduced rate"}, {"measurement": "effect on proliferation of cells expressing Y599F p85β", "setting": "[2]", "value": "did not affect"}, {"measurement": "active ACK levels (pTyr284 ACK)", "setting": "[3]", "value": "reduced active ACK levels"}, {"measurement": "p85α–ACK complex formation in the nucleus", "setting": "[4]", "value": "did not block p85α–ACK complex formation"}]}, {"compound": "insulin: Tyr607 phosphorylation has been detected downstream of insulin stimulation", "values": [{"measurement": "p50α–p85β complex formation", "setting": "[5]", "value": "increased complex formation"}, {"measurement": "p85α–p85β complex formation", "setting": "[6]", "value": "not enhanced"}]}, {"compound": "EGF: EGF (a known stimulator of ACK) (NSDSECPLSHDGYCLHDGVCMYIEALDKYACNCVVGYIGERCQYRDLKWWELR; UniProt P01133 971-1023, looked up)", "values": [{"measurement": "p85α–p85β complex formation", "setting": "[6]", "value": "increase"}]}]}
